Source: ChEMBL document CHEMBL4229486, “Design and synthesis of novel thiadiazole-thiazolone hybrids as potential inhibitors of the human mitotic kinesin Eg5” (Bioorg Med Chem Lett, 2018)
Calls of active or inactive are those of the source. The calls are words filed in the database; no cut-off is given here.

Key:
[1] = biological target: T1, Kinesin-like protein KIF11 (Homo sapiens) (UniProt P52732); assay: Inhibition of basal EG5 ATPase activity (unknown origin) by pyruvate kinase/lactate dehydrogenase enzyme coupled photometric assay
T1 sequence (whole entry): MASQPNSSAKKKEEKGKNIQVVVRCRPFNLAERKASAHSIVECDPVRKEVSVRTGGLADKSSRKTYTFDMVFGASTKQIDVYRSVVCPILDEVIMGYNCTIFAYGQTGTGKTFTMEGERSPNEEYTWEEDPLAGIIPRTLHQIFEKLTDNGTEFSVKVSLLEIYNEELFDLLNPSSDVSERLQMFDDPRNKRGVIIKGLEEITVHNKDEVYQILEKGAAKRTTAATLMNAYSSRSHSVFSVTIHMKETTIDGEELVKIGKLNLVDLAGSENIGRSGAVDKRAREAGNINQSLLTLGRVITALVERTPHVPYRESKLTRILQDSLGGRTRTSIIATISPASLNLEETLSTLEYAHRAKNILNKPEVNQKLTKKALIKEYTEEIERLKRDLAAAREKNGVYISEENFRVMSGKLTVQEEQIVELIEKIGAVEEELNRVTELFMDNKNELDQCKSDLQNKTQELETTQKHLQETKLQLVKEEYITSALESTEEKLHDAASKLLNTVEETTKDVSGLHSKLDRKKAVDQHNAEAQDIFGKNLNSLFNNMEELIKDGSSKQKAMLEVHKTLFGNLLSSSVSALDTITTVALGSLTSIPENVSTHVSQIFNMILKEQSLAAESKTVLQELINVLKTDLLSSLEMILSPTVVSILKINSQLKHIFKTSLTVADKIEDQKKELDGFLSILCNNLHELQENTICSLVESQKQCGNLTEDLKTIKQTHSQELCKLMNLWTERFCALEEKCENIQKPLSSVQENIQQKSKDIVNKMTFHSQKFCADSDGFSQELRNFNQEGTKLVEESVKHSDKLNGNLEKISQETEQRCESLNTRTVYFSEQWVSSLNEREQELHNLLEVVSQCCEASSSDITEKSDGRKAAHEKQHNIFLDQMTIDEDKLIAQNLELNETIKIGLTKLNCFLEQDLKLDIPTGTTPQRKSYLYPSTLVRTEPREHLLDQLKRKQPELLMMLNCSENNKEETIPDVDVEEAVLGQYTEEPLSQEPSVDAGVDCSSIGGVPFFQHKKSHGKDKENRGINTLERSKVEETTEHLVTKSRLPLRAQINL

[2] = biological target: T2, Kinesin-like protein KIF11 (Homo sapiens, UniProt P52732); assay: Inhibition of MT-stimulated EG5 ATPase activity (unknown origin) by pyruvate kinase/lactate dehydrogenase enzyme coupled photometric assay
T2 sequence (P52732 whole entry): T1 sequence (whole entry)

[3] = biological target: T2, Kinesin-like protein KIF11; assay: Inhibition EG5 (unknown origin)

SMILES | inhibition [1] | IC50 ([2]; read-out: IC50) | IC50 [3] | IC50 [2]
CC(=O)N1N=C(NC2=NC(=O)/C(=C/c3cccs3)S2)SC1(C)c1ccccc1 (configuration not stated) | inactive | 133 µM |  | 
COc1cccc(/C=C2\SC(NC3=NN(C(C)=O)C(C)(c4ccccc4)S3)=NC2=O)c1 (configuration not stated) | inactive | 51 µM |  | 
CC(=O)N1N=C(NC2=NC(=O)/C(=C/C=C/c3ccc(N(C)C)cc3)S2)SC1(C)c1ccccc1 (configuration not stated) | inactive | 129 µM |  | 
COc1ccc(/C=C2\SC(NC3=NN(C(C)=O)C(C)(c4ccccc4)S3)=NC2=O)cc1OC (configuration not stated) | inactive | 60 to 112 µM |  | 
CC(=O)N1N=C(NC2=NC(=O)/C(=C/c3ccccc3Cl)S2)SC1(C)c1ccccc1 (configuration not stated) | inactive | 13.2 µM |  | 
CC(=O)N1N=C(NC2=NC(=O)/C(=C/c3ccc([N+](=O)[O-])cc3)S2)SC1(C)c1ccccc1 (configuration not stated) | inactive | 20.2 µM |  | 
COc1cccc(/C=C2\SC(NC3=NN(C(C)=O)C(C)(c4ccccc4)S3)=NC2=O)c1OC (configuration not stated) | inactive | 71.9 µM |  | 
CC(=O)NC1=NN(C(C)=O)C(C)(c2ccccc2)S1 (configuration not stated) |  | 0.8 µM |  | 
CCNCCS(=O)(=O)NC[C@@]1(c2ccccc2)SC(NC(=O)C(C)(C)C)=NN1C(=O)C(C)(C)C [LITRONESIB] |  |  | 0.007 µM | 
COc1ccc(/C=C2\SC(NC3=NN(C(C)=O)C(C)(c4ccccc4)S3)=NC2=O)cc1 (configuration not stated) | inactive | 42.7 µM |  | 
CC(=O)N1N=C(NC2=NC(=O)/C(=C/c3ccccc3F)S2)SC1(C)c1ccccc1 (configuration not stated) | inactive | 70 to 133 µM |  | 
CC(=O)N1N=C(NC2=NC(=O)/C(=C/c3ccc(OCc4ccccc4)cc3)S2)SC1(C)c1ccccc1 (configuration not stated) | inactive | 17.2 µM |  | 
CC(=O)N1N=C(NC2=NC(=O)/C(=C/C=C/c3ccccc3)S2)SC1(C)c1ccccc1 (configuration not stated) | inactive | 75 to 248 µM |  | 
CC(=O)N1N=C(NC2=NC(=O)/C(=C/c3cccc([N+](=O)[O-])c3)S2)SC1(C)c1ccccc1 (configuration not stated) | inactive | 27.5 µM |  | 
CC1=C(C(=O)OC(C)C)C(c2ccc(Cl)cc2)n2c(s/c(=C\c3ccc(OCC(=O)O)cc3)c2=O)=N1 (configuration not stated) |  |  | 4.6 µM | 
CC(=O)C1=NN(c2cc(C)ccc2F)C[C@]1(CCCN(C)C)c1ccccc1 |  |  | 0.0002 µM | 
CC(=O)N1N=C(NC2=NC(=O)/C(=C/c3ccc(Cl)cc3)S2)SC1(C)c1ccccc1 (configuration not stated) | inactive | 106 µM |  | 
CC(=O)N1N=C(NC2=NC(=O)/C(=C/c3ccc(C)cc3)S2)SC1(C)c1ccccc1 (configuration not stated) | inactive | 63.3 µM |  | 
CC(=O)N1N=C(NC2=NC(=O)/C(=C/c3ccc(Br)cc3)S2)SC1(C)c1ccccc1 (configuration not stated) | inactive | 39.2 µM |  | 
CC(=O)N1N=C(NC2=NC(=O)/C(=C/c3cccc(Cl)c3)S2)SC1(C)c1ccccc1 (configuration not stated) | inactive | 47.8 µM |  | 
CC(=O)N1N=C(NC2=NC(=O)/C(=C/c3ccccn3)S2)SC1(C)c1ccccc1 (configuration not stated) | inactive | 120 µM |  | 
CC(=O)N1N=C(NC2=NC(=O)/C(=C/c3ccco3)S2)SC1(C)c1ccccc1 (configuration not stated) | inactive | 120 to 331 µM |  | 
COc1ccc(/C=C/C=C2\SC(NC3=NN(C(C)=O)C(C)(c4ccccc4)S3)=NC2=O)cc1 (configuration not stated) | inactive | 90 to 414 µM |  | 
CC(=O)N1N=C(NC2=NC(=O)/C(=C/c3ccccc3[N+](=O)[O-])S2)SC1(C)c1ccccc1 (configuration not stated) |  |  |  | Active
CC(=O)N1N=C(NC2=NC(=O)/C(=C/c3ccccc3)S2)SC1(C)c1ccccc1 (configuration not stated) | inactive | 62.1 µM |  | 
CC(=O)N1N=C(NC2=NC(=O)/C(=C/c3ccc(N(C)C)cc3)S2)SC1(C)c1ccccc1 (configuration not stated) | inactive | 90 to 252 µM |  | 
